Data reported in patent publication US20230102554A1 (GB002, INC., priority 2019, published 2023).

Columns and labels:
[1] = biological target: T1, Human PDGFRβ, cytoplasmic domain (GST-PDGFRβ) (Homo sapiens, UniProt P09619); experiment: Human PDGFRβ biochemical inhibition assay (off-chip Mobility Shift Assay)
T1 construct: made in house
Description: Human PDGFRβ Biochemical Inhibition Assay
The compounds described herein were tested for the ability to inhibit activity of PDGFRβ which was achieved via use of an off-chip Mobility Shift Assay (MSA). Human PDGFRβ, cytoplasmic domain [557-1106 (end) amino acids of accession number NP_002600.1 (SEQ ID NO: 3)] was expressed as N-terminal GST-fusion protein (88 kDa) using baculovirus expression system (SEQ ID NO: 4). GST-PDGFRβ was purified by using glutathione sepharose chromatography. Test compounds were dissolved in and diluted with dimethylsulfoxide (DMSO) to achieve 1 mM concentration. Then the solution was further diluted 25-fold with assay buffer to make the final test compound solution. The reference compound, Staurosporine, used as the assay positive control was prepared similarly. The 4× compound solution/substrate (CSKtide, 1000 nM)/ATP (Km ATP)/Mg Metal (5 mM) was prepared with kit buffer (20 mM HEPES, 0.01% Triton X-100, 5 mM DTT, pH 7.5), and 2× kinase solution was prepared with assay buffer (20 mM HEPES, 0.01% Triton X-100, 1 mM DTT, pH 7.5). The 5 μL of 4× compound solution, […] of 4× Substrate/ATP/Metal solution, and […] of 2× kinase solution were mixed and incubated in a well of polypropylene 384 well microplate for 1 hour at room temperature. […] of Termination Buffer (QuickScout Screening Assist MSA; Carna Biosciences) was added to the well. The reaction mixture was applied to LabChip™ system (Perkin Elmer), and the product and substrate peptide peaks were separated and quantitated. The kinase reaction was evaluated by the product ratio calculated from peak heights of product(P) and substrate(S) peptides (P/(P+S)). The readout value of reaction control (complete reaction mixture) was set as a 0% inhibition, and the readout value of background (Enzyme(−)) was set as a 100% inhibition, then the percent inhibition of each test solution was calculated.
With respect to PDGFRβ activity: “+++” denotes an IC50 of less than 300 nM; “++” denotes an IC50 of from 300 nM to less than 1000 nM; and “+” denotes an IC50 of 1000 nM or more.

[2] = biological target: T2, Human PDGFRα, cytoplasmic domain (GST-PDGFRα) (Homo sapiens, UniProt P16234); experiment: Human PDGFRα biochemical inhibition assay (off-chip Mobility Shift Assay)
T2 construct: made in house
T2 sequence (P16234 550-1089 T674I): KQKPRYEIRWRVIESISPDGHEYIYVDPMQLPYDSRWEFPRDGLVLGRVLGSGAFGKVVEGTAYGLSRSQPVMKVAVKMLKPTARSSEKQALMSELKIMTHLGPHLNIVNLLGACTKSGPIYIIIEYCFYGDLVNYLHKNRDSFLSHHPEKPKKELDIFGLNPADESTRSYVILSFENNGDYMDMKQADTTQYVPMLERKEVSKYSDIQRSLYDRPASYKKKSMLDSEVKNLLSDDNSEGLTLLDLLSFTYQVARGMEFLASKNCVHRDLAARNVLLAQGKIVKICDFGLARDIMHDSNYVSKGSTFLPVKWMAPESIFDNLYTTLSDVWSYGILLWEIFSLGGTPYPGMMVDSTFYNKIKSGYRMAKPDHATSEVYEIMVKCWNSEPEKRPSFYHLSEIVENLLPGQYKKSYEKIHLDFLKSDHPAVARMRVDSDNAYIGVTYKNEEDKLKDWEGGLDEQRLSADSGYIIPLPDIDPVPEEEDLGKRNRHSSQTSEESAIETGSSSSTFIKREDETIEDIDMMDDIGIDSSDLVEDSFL

T1 sequence (P09619 with tags, fused parts or gaps): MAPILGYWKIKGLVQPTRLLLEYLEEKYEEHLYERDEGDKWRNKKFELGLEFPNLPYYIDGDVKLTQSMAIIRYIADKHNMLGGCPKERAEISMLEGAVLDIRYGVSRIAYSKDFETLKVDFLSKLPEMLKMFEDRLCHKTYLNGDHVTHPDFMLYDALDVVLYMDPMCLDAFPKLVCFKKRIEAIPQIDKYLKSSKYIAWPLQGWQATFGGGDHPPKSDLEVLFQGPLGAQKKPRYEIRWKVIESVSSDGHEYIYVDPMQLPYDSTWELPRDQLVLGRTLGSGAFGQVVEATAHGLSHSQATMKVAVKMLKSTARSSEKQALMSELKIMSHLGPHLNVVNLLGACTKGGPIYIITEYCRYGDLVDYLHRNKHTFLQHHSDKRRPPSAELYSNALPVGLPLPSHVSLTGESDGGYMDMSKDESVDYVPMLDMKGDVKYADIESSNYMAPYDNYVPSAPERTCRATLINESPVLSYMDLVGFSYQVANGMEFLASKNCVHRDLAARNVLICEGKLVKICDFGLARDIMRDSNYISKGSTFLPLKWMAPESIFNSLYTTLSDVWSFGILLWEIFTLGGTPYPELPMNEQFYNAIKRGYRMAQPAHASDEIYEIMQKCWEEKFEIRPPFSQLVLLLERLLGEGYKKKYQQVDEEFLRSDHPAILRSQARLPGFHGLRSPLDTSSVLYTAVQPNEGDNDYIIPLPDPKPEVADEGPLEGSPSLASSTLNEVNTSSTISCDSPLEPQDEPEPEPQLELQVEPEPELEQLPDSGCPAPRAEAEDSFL

SMILES	IC50 [1]	IC50 [2]
Cc1cc(C(=O)Nc2cccc([C@H](C)Nc3cnc4cnn(C)c4n3)c2)cnc1N1CC2(COC2)C1 [Compound 259, (S)-5-methyl-N-(3-(1-((1-methyl-1H-pyrazolo[3,4-b]pyrazin-6-yl)amino)ethyl)phenyl)-6-(2-oxa-6-azaspiro[3.3]heptan-6-yl) nicotinamide]	< 300 nM	< 300 nM
CCn1cc2ncc(N[C@@H](C)c3cccc(NC(=O)c4ccc(C(=O)N5CC[C@@H](N)C5)c(C)c4)c3)nc2n1 [Compound 465, 4-((R)-3-aminopyrrolidine-1-carbonyl)-N-(3-((S)-1-((2-ethyl-2H-pyrazolo[3,4-b]pyrazin-6-yl)amino)ethyl)phenyl)-3-methylbenzamide]	≥ 1000 nM	< 300 nM
Cc1cncc(C(=O)Nc2cccc([C@H](C)Nc3cnc4cnn(CC5CC5)c4n3)c2)c1 [Compound 181, (S)-N-(3-(1-((1-(cyclopropylmethyl)-1H-pyrazolo[3,4-b]pyrazin-6-yl)amino)ethyl)phenyl)-5-methylnicotinamide]	< 300 nM	< 300 nM
COc1cc(C(=O)Nc2cccc([C@H](C)Nc3cnc4cnn(C)c4n3)c2)cnc1OC [Compound 205, (S)-5,6-dimethoxy-N-(3-(1-((1-methyl-1H-pyrazolo[3,4-b]pyrazin-6-yl)amino)ethyl)phenyl)nicotinamide]	< 300 nM	< 300 nM
CCn1cc2ncc(N[C@@H](C)c3cc(NC(=O)c4cnc(C5CC5)s4)ccc3F)nc2n1 [Compound 309, (S)-2-cyclopropyl-N-(3-(1-((2-ethyl-2H-pyrazolo[3,4-b]pyrazin-6-yl)amino)ethyl)-4-fluorophenyl)thiazole-5-carboxamide]	< 300 nM	< 300 nM
CCn1cc2ncc(N[C@@H](C)c3cccc(NC(=O)c4ccc(C)c(F)c4)c3)nc2n1 [Compound 344, (S)-N-(3-(1-((2-ethyl-2H-pyrazolo[3,4-b]pyrazin-6-yl)amino)ethyl)phenyl)-3-fluoro-4-methylbenzamide]	< 300 nM	< 300 nM
CCn1cc2ncc(N[C@@H](C)c3cc(NC(=O)Cc4ccc(F)c(CN5CCN(C)CC5)n4)ccc3C)nc2n1 [Compound 726, (S)-N-(3-(1-((2-ethyl-2H-pyrazolo[3,4-b]pyrazin-6-yl)amino)ethyl)-4-methylphenyl)-2-(5-fluoro-6-((4-methylpiperazin-1-yl)methyl)pyridin-2-yl)acetamide]	300 to 1000 nM	< 300 nM
CCn1cc2ncc(N[C@@H](C)c3cccc(NC(=O)c4cnc5ccccc5c4)c3)nc2n1 [Compound 57, (S)-N-(3-(1-((2-ethyl-2H-pyrazolo[3,4-b]pyrazin-6-yl)amino)ethyl)phenyl)quinoline-3-carboxamide]	< 300 nM	< 300 nM
CCn1cc2ncc(N[C@@H](C)c3cc(NC(=O)c4ccc(C(F)(F)F)nc4)ccc3Cl)nc2n1 [Compound 458, (S)-N-(4-chloro-3-(1-((2-ethyl-2H-pyrazolo[3,4-b]pyrazin-6-yl)amino)ethyl)phenyl)-6-(trifluoromethyl)nicotinamide]	< 300 nM	< 300 nM
CCn1cc2ncc(N[C@@H](C)c3cc(NC(=O)c4ccc(Cl)c(C)c4)ccc3C)nc2n1 [Compound 508, (S)-4-chloro-N-(3-(1-((2-ethyl-2H-pyrazolo[3,4-b]pyrazin-6-yl)amino)ethyl)-4-methylphenyl)-3-methylbenzamide]	< 300 nM	< 300 nM
CCn1cc2ncc(N[C@@H](C)c3cc(NC(=O)c4cnc(OC)c(C)c4)ccc3F)nc2n1 [Compound 317, (S)-N-(3-(1-((2-ethyl-2H-pyrazolo[3,4-b]pyrazin-6-yl)amino)ethyl)-4-fluorophenyl)-6-methoxy-5-methylnicotinamide]	< 300 nM	< 300 nM
COCc1cncc(C(=O)Nc2cccc([C@H](C)Nc3cnc4cnn(C)c4n3)c2)c1 [Compound 112, (S)-5-(methoxymethyl)-N-(3-(1-((1-methyl-1H-pyrazolo[3,4-b]pyrazin-6-yl)amino)ethyl)phenyl)nicotinamide]	< 300 nM	< 300 nM
CCn1cc2ncc(N[C@@H](C)c3cccc(NC(=O)c4ccc5c(c4)OC(F)(F)O5)c3)nc2n1 [Compound 442, (S)-N-(3-(1-((2-ethyl-2H-pyrazolo[3,4-b]pyrazin-6-yl)amino)ethyl)phenyl)-2,2-difluorobenzo[d][1,3]dioxole-5-carboxamide]	< 300 nM	< 300 nM
CCNc1ncc(C(=O)Nc2cccc([C@H](C)Nc3cnc4cn(CC)nc4n3)c2)cc1C [Compound 333, (S)-N-(3-(1-((2-ethyl-2H-pyrazolo[3,4-b]pyrazin-6-yl)amino)ethyl)phenyl)-6-(ethylamino)-5-methylnicotinamide]	300 to 1000 nM	< 300 nM
CC1OC(=O)c2ccc(C(=O)Nc3cccc([C@H](C)Nc4cnc5cnn(C)c5n4)c3)cc21 (stereo partly drawn) [Compound 76, 3-methyl-N-(3-((S)-1-((1-methyl-N-pyrazolo[3,4-b]pyrazin-6-yl)amino)ethyl)phenyl)-1-oxo-1,3-dihydroisobenzofuran-5-carboxamide]	< 300 nM	< 300 nM
CCn1cc2ncc(N[C@@H](C)c3cccc(NC(=O)c4cnc(NC5CC5)c(C)c4)c3)nc2n1 [Compound 352, (S)-6-(cyclopropylamino)-N-(3-(1-((2-ethyl-2H-pyrazolo[3,4-b]pyrazin-6-yl)amino)ethyl)phenyl)-5-methylnicotinamide]	300 to 1000 nM	< 300 nM
Cc1cncc(C(=O)Nc2cccc([C@H](C)Nc3cncc4c3ccn4-c3cnn(C)c3)c2)c1 [Compound 748, (S)-5-methyl-N-(3-(1-((1-(1-methyl-1H-pyrazol-4-yl)-1H-pyrrolo[2,3-c]pyridin-4-yl)amino)ethyl)phenyl) nicotinamide]	300 to 1000 nM	< 300 nM
CCn1cc2ncc(N[C@@H](C)c3cccc(NC(=O)c4ccoc4)c3)nc2n1 [Compound 368, (S)-N-(3-(1-((2-ethyl-2H-pyrazolo[3,4-b]pyrazin-6-yl)amino)ethyl)phenyl)furan-3-carboxamide]	≥ 1000 nM	≥ 1000 nM
CCn1cc2ncc(N[C@@H](C)c3cc(NC(=O)Cc4ccc(F)cn4)ccc3F)nc2n1 [Compound 649, (S)-N-(3-(1-((2-ethyl-2H-pyrazolo[3,4-b]pyrazin-6-yl)amino)ethyl)-4-fluorophenyl)-2-(5-fluoropyridin-2-yl)acetamide]	300 to 1000 nM	< 300 nM
CCc1cc(C(=O)Nc2cccc([C@H](C)Nc3cnc4cn(CC)nc4n3)c2)ccc1CN1CCN(C)CC1 [Compound 498, (S)-3-ethyl-N-(3-(1-((2-ethyl-2H-pyrazolo[3,4-b]pyrazin-6-yl)amino)ethyl)phenyl)-4-((4-methylpiperazin-1-yl)methyl) benzamide]	< 300 nM	< 300 nM
CCn1cc2ncc(N[C@@H](C)c3cccc(NC(=O)c4ccc(C(=O)N5CCN(C)CC5)c(Cl)c4)c3)nc2n1 [Compound 466, (S)-3-chloro-N-(3-(1-((2-ethyl-2H-pyrazolo[3,4-b]pyrazin-6-yl)amino)ethyl)phenyl)-4-(4-methylpiperazine-1-carbonyl) benzamide]	300 to 1000 nM	< 300 nM
CCn1ncc2ncc(N[C@@H](C)c3cccc(NC(=O)c4cncc(C)c4)c3)cc21 [Compound 7]	≥ 1000 nM	< 300 nM
CCn1cc(C(=O)Nc2cccc([C@H](C)Nc3cnc4cnn(C)c4n3)c2)cn1 [Compound 153, (S)-1-ethyl-N-(3-(1-((1-methyl-1H-pyrazolo[3,4-b]pyrazin-6-yl)amino)ethyl)phenyl)-1H-pyrazole-4-carboxamide]	< 300 nM	< 300 nM
C[C@H](Nc1cnc2cnn(C)c2n1)c1cccc(NC(=O)c2cnn(C3CCC3)c2)c1 [Compound 151, (S)-1-cyclobutyl-N-(3-(1-((1-methyl-1H-pyrazolo[3,4-b]pyrazin-6-yl)amino)ethyl)phenyl)-1H-pyrazole-4-carboxamide]	< 300 nM	< 300 nM
CCn1cc2ncc(N[C@@H](C)c3cccc(NC(=O)Nc4cnn(CC5CC5)c4)c3)nc2n1 [Compound 741, (S)-1-(1-(cyclopropylmethyl)-1H-pyrazol-4-yl)-3-(3-(1-((2-ethyl-2H-pyrazolo[3,4-b]pyrazin-6-yl)amino)ethyl)phenyl)urea]	≥ 1000 nM	< 300 nM
CCn1cc2ncc(N[C@@H](C)c3cc(NC(=O)c4cnc(C#N)c(C)c4)ccc3F)nc2n1 [Compound 306, (S)-6-cyano-N-(3-(1-((2-ethyl-2H-pyrazolo[3,4-b]pyrazin-6-yl)amino)ethyl)-4-fluorophenyl)-5-methylnicotinamide]	< 300 nM	< 300 nM
CSc1cncc(C(=O)Nc2cccc([C@H](C)Nc3cnc4cnn(C)c4n3)c2)c1 [Compound 225]	< 300 nM	–
